Measurements: ChEMBL document CHEMBL3885861, “Open TG-GATES”

Organism: Rattus norvegicus
Test: Open TG-GATES - Regimen: Single
Assay type: toxicity, organism-based, Sprague-Dawley
Set-up: regimen Single, gender Male, age 6 weeks
Details: in vivo, po, route gavage; for APTT / Bas / Eos / Fbg / Hb / Ht / Lym / MCH / MCHC / MCV / Mono / Neu / PT / Plat / RBC / Ret / WBC: tissue Blood; for KIDNEY_L / KIDNEY_R / KIDNEY_TOTAL: tissue Kidney; for LIVER: tissue Liver; for A/G / ALP / ALT / AST / BUN / CRE / Ca / Cl / DBIL / GLC / IP / K / LDH / Na / PL / RALB / TBIL / TC / TG / TP / gamma-GTP: tissue Plasma
[1] = 300 mg/kg, 3 h, dose level Middle
[2] = 300 mg/kg, 6 h, dose level Middle
[3] = 300 mg/kg, 9 h, dose level Middle
[4] = 300 mg/kg, 24 h, dose level Middle
[5] = 1000 mg/kg, 3 h, dose level High
[6] = 1000 mg/kg, 6 h, dose level High
[7] = 1000 mg/kg, 9 h, dose level High
[8] = 1000 mg/kg, 24 h, dose level High

## CC(=O)Nc1ccc2c(c1)Cc1ccccc1-2 [2-ACETYLAMINOFLUORENE]
[1]
  TERMINAL_BW: 222.8 g
  APTT: 19.8 s
  Bas: 0.4%
  Eos: 1.2%
  Fbg: 222.4 mg/dL
  Hb: 13.9 g/dL
  Ht: 39.7%
  Lym: 69.8%
  MCH: 22.1 pg
  MCHC: 34.9%
  MCV: 63.3 fL
  Mono: 2.8%
  Neu: 25.4%
  PT: 12 s
  Plat: 131.6 x10_4/uL
  RBC: 626.2 x10_4/ul
  Ret: 7.1%
  WBC: 74.2 x10_2/uL
  KIDNEY_L: 1 g
  KIDNEY_R: 0.9 g
  KIDNEY_TOTAL: 1.9 g
  LIVER: 10.3 g
  A/G: 1.7
  ALP: 922.4 IU/L
  ALT: 39 IU/L
  AST: 78 IU/L
  BUN: 12.8 mg/dL
  CRE: 0.4 mg/dL
  Ca: 10.8 mg/dL
  Cl: 103.8 meq/L
  DBIL: 0.07 mg/dL
  GLC: 201.6 mg/dL
  IP: 10.2 mg/dL
  K: 3.9 meq/L
  LDH: 195.8 IU/L
  Na: 141.6 meq/L
  PL: 133.2 mg/dL
  RALB: 3.6 g/dL
  TBIL: 0.1 mg/dL
  TC: 74.6 mg/dL
  TG: 62.6 mg/dL
  TP: 5.7 g/dL
  gamma-GTP: 1.4 IU/L
[2]
  TERMINAL_BW: 219.1 g
  APTT: 20 s
  Bas: 0.6%
  Eos: 0.8%
  Fbg: 224.8 mg/dL
  Hb: 14.4 g/dL
  Ht: 41.9%
  Lym: 77.2%
  MCH: 21.9 pg
  MCHC: 34.4%
  MCV: 63.5 fL
  Mono: 2.2%
  Neu: 18.8%
  PT: 12.8 s
  Plat: 128 x10_4/uL
  RBC: 661.8 x10_4/ul
  Ret: 7.2%
  WBC: 67.5 x10_2/uL
  KIDNEY_L: 1 g
  KIDNEY_R: 1 g
  KIDNEY_TOTAL: 2 g
  LIVER: 10 g
  A/G: 1.6
  ALP: 837.8 IU/L
  ALT: 31.6 IU/L
  AST: 67.6 IU/L
  BUN: 12.2 mg/dL
  CRE: 0.5 mg/dL
  Ca: 10.8 mg/dL
  Cl: 102.6 meq/L
  DBIL: 0.068 mg/dL
  GLC: 218.2 mg/dL
  IP: 9.1 mg/dL
  K: 3.8 meq/L
  LDH: 191.4 IU/L
  Na: 141 meq/L
  PL: 144.4 mg/dL
  RALB: 3.5 g/dL
  TBIL: 0.1 mg/dL
  TC: 85.2 mg/dL
  TG: 32.6 mg/dL
  TP: 5.6 g/dL
  gamma-GTP: 1.2 IU/L
[3]
  TERMINAL_BW: 215.7 g
  APTT: 18.1 s
  Bas: 0.2%
  Eos: 0.6%
  Fbg: 233.8 mg/dL
  Hb: 13.9 g/dL
  Ht: 40.7%
  Lym: 74%
  MCH: 21.4 pg
  MCHC: 34.2%
  MCV: 62.5 fL
  Mono: 2.8%
  Neu: 21.8%
  PT: 13 s
  Plat: 136.5 x10_4/uL
  RBC: 652 x10_4/ul
  Ret: 7.4%
  WBC: 80.9 x10_2/uL
  KIDNEY_L: 1 g
  KIDNEY_R: 1 g
  KIDNEY_TOTAL: 1.9 g
  LIVER: 9.7 g
  A/G: 1.6
  ALP: 756.6 IU/L
  ALT: 31.4 IU/L
  AST: 68 IU/L
  BUN: 10.4 mg/dL
  CRE: 0.4 mg/dL
  Ca: 10.5 mg/dL
  Cl: 103.4 meq/L
  DBIL: 0.06 mg/dL
  GLC: 206.4 mg/dL
  IP: 8.9 mg/dL
  K: 4 meq/L
  LDH: 184.6 IU/L
  Na: 140.2 meq/L
  PL: 125 mg/dL
  RALB: 3.5 g/dL
  TBIL: 0.1 mg/dL
  TC: 72.2 mg/dL
  TG: 32.2 mg/dL
  TP: 5.7 g/dL
  gamma-GTP: 1.2 IU/L
[4]
  TERMINAL_BW: 220.9 g
  APTT: 19.1 s
  Bas: 0.6%
  Eos: 1%
  Fbg: 210.8 mg/dL
  Hb: 14.5 g/dL
  Ht: 41.9%
  Lym: 75.2%
  MCH: 22.2 pg
  MCHC: 34.8%
  MCV: 63.7 fL
  Mono: 3.2%
  Neu: 19.8%
  PT: 14.4 s
  Plat: 131.6 x10_4/uL
  RBC: 657.8 x10_4/ul
  Ret: 5.9%
  WBC: 77.9 x10_2/uL
  KIDNEY_L: 1 g
  KIDNEY_R: 1 g
  KIDNEY_TOTAL: 2 g
  LIVER: 11 g
  A/G: 1.7
  ALP: 865 IU/L
  ALT: 35.4 IU/L
  AST: 74 IU/L
  BUN: 15.6 mg/dL
  CRE: 0.4 mg/dL
  Ca: 10.6 mg/dL
  Cl: 105.2 meq/L
  DBIL: 0.098 mg/dL
  GLC: 196.6 mg/dL
  IP: 9.1 mg/dL
  K: 4.3 meq/L
  LDH: 212.8 IU/L
  Na: 140.6 meq/L
  PL: 117 mg/dL
  RALB: 3.3 g/dL
  TBIL: 0.2 mg/dL
  TC: 52 mg/dL
  TG: 75.8 mg/dL
  TP: 5.2 g/dL
  gamma-GTP: 1.2 IU/L
[5]
  TERMINAL_BW: 222.5 g
  APTT: 20.1 s
  Bas: 0.6%
  Eos: 1%
  Fbg: 233.2 mg/dL
  Hb: 14.2 g/dL
  Ht: 41%
  Lym: 73%
  MCH: 21.9 pg
  MCHC: 34.7%
  MCV: 63.3 fL
  Mono: 3%
  Neu: 21.6%
  PT: 12 s
  Plat: 122.7 x10_4/uL
  RBC: 648.8 x10_4/ul
  Ret: 7.5%
  WBC: 60.1 x10_2/uL
  KIDNEY_L: 1 g
  KIDNEY_R: 1 g
  KIDNEY_TOTAL: 2 g
  LIVER: 10.4 g
  A/G: 1.6
  ALP: 850.2 IU/L
  ALT: 41.4 IU/L
  AST: 84 IU/L
  BUN: 12.4 mg/dL
  CRE: 0.5 mg/dL
  Ca: 10.9 mg/dL
  Cl: 102.4 meq/L
  DBIL: 0.078 mg/dL
  GLC: 218.8 mg/dL
  IP: 10.5 mg/dL
  K: 3.8 meq/L
  LDH: 209.6 IU/L
  Na: 140.8 meq/L
  PL: 151.6 mg/dL
  RALB: 3.6 g/dL
  TBIL: 0.1 mg/dL
  TC: 87.4 mg/dL
  TG: 68.8 mg/dL
  TP: 5.9 g/dL
  gamma-GTP: 1.2 IU/L
[6]
  TERMINAL_BW: 215.7 g
  APTT: 19.6 s
  Bas: 0.8%
  Eos: 1.2%
  Fbg: 227.2 mg/dL
  Hb: 14.4 g/dL
  Ht: 41.6%
  Lym: 73.6%
  MCH: 21.9 pg
  MCHC: 34.6%
  MCV: 63.4 fL
  Mono: 1.8%
  Neu: 22.8%
  PT: 12.9 s
  Plat: 126.1 x10_4/uL
  RBC: 656.8 x10_4/ul
  Ret: 7.5%
  WBC: 35.4 x10_2/uL
  KIDNEY_L: 0.9 g
  KIDNEY_R: 0.9 g
  KIDNEY_TOTAL: 1.8 g
  LIVER: 9.7 g
  A/G: 1.7
  ALP: 1010.2 IU/L
  ALT: 37.4 IU/L
  AST: 72.6 IU/L
  BUN: 14.4 mg/dL
  CRE: 0.5 mg/dL
  Ca: 10.7 mg/dL
  Cl: 102 meq/L
  DBIL: 0.074 mg/dL
  GLC: 251.2 mg/dL
  IP: 9.7 mg/dL
  K: 4 meq/L
  LDH: 228.6 IU/L
  Na: 140.6 meq/L
  PL: 133.6 mg/dL
  RALB: 3.6 g/dL
  TBIL: 0.1 mg/dL
  TC: 83.8 mg/dL
  TG: 26.6 mg/dL
  TP: 5.8 g/dL
  gamma-GTP: 1.4 IU/L
[7]
  TERMINAL_BW: 214.2 g
  APTT: 18.7 s
  Bas: 0.6%
  Eos: 0.6%
  Fbg: 252.4 mg/dL
  Hb: 14.8 g/dL
  Ht: 42.6%
  Lym: 68.8%
  MCH: 22 pg
  MCHC: 34.7%
  MCV: 63.3 fL
  Mono: 3.6%
  Neu: 25%
  PT: 13.1 s
  Plat: 130.1 x10_4/uL
  RBC: 673.2 x10_4/ul
  Ret: 7.4%
  WBC: 46.2 x10_2/uL
  KIDNEY_L: 1 g
  KIDNEY_R: 0.9 g
  KIDNEY_TOTAL: 1.9 g
  LIVER: 10.4 g
  A/G: 1.5
  ALP: 751.4 IU/L
  ALT: 33 IU/L
  AST: 64.8 IU/L
  BUN: 13.4 mg/dL
  CRE: 0.5 mg/dL
  Ca: 11.1 mg/dL
  Cl: 104.6 meq/L
  DBIL: 0.066 mg/dL
  GLC: 225.4 mg/dL
  IP: 9.7 mg/dL
  K: 4.2 meq/L
  LDH: 196.8 IU/L
  Na: 141.4 meq/L
  PL: 160.4 mg/dL
  RALB: 3.6 g/dL
  TBIL: 0.1 mg/dL
  TC: 90 mg/dL
  TG: 34.4 mg/dL
  TP: 6 g/dL
  gamma-GTP: 1 IU/L
[8]
  TERMINAL_BW: 212.5 g
  APTT: 20.3 s
  Bas: 0.4%
  Eos: 0.8%
  Fbg: 209.6 mg/dL
  Hb: 14.7 g/dL
  Ht: 42.1%
  Lym: 67.2%
  MCH: 21.8 pg
  MCHC: 35%
  MCV: 62.3 fL
  Mono: 2.8%
  Neu: 28%
  PT: 15 s
  Plat: 140.3 x10_4/uL
  RBC: 675.8 x10_4/ul
  Ret: 7%
  WBC: 79.6 x10_2/uL
  KIDNEY_L: 1 g
  KIDNEY_R: 1 g
  KIDNEY_TOTAL: 1.9 g
  LIVER: 9.7 g
  A/G: 1.6
  ALP: 787.8 IU/L
  ALT: 32.4 IU/L
  AST: 78.8 IU/L
  BUN: 11.6 mg/dL
  CRE: 0.6 mg/dL
  Ca: 10 mg/dL
  Cl: 105 meq/L
  DBIL: 0.1 mg/dL
  GLC: 190.6 mg/dL
  IP: 8.7 mg/dL
  K: 4.2 meq/L
  LDH: 252.4 IU/L
  Na: 140.8 meq/L
  PL: 116.8 mg/dL
  RALB: 3.3 g/dL
  TBIL: 0.2 mg/dL
  TC: 59.6 mg/dL
  TG: 67.4 mg/dL
  TP: 5.3 g/dL
  gamma-GTP: 1.2 IU/L
